For experiment [1], the target named is Protein kinase C alpha type (Homo sapiens, UniProt P17252). Briefly: Selectivity interaction (Kinase panel (Z-LYTE Assay)) EUB0001632a PRKCA. The conditions noted are these: at 10 µM.
The target in experiment [2] is Tyrosine-protein kinase receptor UFO (Homo sapiens) (UniProt P30530). Briefly: Selectivity interaction (KinomeScan (DiscoverX)) EUB0000595a AXL. To be noted: at 10 µM.
In experiment [3] the target is Epithelial discoidin domain-containing receptor 1 (Homo sapiens) (UniProt Q08345). The experiment can be described thus: Selectivity interaction (KinomeScan (DiscoverX)) EUB0000666a DDR1. The conditions noted are these: at 10 µM.
Experiment [4] has as its target MAP kinase-activated protein kinase 2 (Homo sapiens, UniProt P49137). Briefly: Selectivity interaction (KinomeScan (DiscoverX)) EUB0000607a MAPKAPK2. The conditions noted are these: at 10 µM.
The target of experiment [5] is Ribosomal protein S6 kinase alpha-5 (Homo sapiens) (UniProt O75582). To be noted: at 10 µM.
Experiment [6] addresses Serine/threonine-protein kinase OSR1 (Homo sapiens) (UniProt O95747). The conditions noted are these: at 10 µM.
Experiment [7] has as its target Ribosomal protein S6 kinase alpha-5 (Homo sapiens) (UniProt O75582). Briefly: Selectivity interaction (Kinase panel (Invitrogen)) EUB0000639a RPS6KA5. The conditions noted are these: at 200 nM.
Experiment [8] addresses Cyclin-dependent kinase 5 (Homo sapiens, UniProt Q00535). The experiment can be described thus: Selectivity interaction (ActivX KiNativ screen (kinase selectivity in THP-1 cell lysates)) EUB0000639a CDK5. The format is subcellular. The conditions noted are these: lysate, at 1 µM.
In experiment [9] the target is STE20/SPS1-related proline-alanine-rich protein kinase (Homo sapiens) (UniProt Q9UEW8). Briefly: Selectivity interaction (ActivX KiNativ screen (kinase selectivity in THP-1 cell lysates)) EUB0000639a STK39. The experiment is classed as subcellular. To be noted: lysate.
Experiment [10] concerns the target Dual specificity mitogen-activated protein kinase kinase 1 (Homo sapiens, UniProt Q02750). The experiment can be described thus: Selectivity interaction (Kinase panel (Invitrogen)) EUB0000639a MAP2K1. To be noted: at 200 nM.
Experiment [11] has as its target Mitogen-activated protein kinase kinase kinase kinase 5 (Homo sapiens) (UniProt Q9Y4K4). Briefly: Selectivity interaction (KinomeScan (DiscoverX)) EUB0000045b MAP4K5.
Experiment [12] has as its target Protein kinase C theta type (Homo sapiens, UniProt Q04759). Briefly: Selectivity interaction (ProQinase) EUB0000171b PRKCQ.
The target of experiment [13] is T1, cGMP-dependent protein kinase 1 (Homo sapiens) (UniProt Q13976).
T1 sequence (whole entry): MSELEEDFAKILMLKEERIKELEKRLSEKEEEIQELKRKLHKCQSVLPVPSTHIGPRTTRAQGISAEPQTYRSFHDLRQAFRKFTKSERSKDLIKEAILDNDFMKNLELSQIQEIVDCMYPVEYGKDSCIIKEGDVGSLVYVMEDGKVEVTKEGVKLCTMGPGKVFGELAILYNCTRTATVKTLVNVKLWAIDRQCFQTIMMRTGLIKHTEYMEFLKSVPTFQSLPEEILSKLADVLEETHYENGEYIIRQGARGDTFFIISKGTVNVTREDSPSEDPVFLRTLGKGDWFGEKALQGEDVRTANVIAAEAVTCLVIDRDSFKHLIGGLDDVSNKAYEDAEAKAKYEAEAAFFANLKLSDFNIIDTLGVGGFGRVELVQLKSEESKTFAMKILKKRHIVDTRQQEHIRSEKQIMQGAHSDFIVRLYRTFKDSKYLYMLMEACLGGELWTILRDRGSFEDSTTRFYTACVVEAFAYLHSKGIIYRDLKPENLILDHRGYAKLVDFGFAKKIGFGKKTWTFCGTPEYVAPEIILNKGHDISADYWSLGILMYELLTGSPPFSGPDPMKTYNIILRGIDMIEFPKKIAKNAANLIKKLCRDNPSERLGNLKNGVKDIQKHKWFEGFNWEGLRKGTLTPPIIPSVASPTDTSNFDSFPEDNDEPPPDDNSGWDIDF
Briefly: Selectivity interaction (KinomeScan (DiscoverX)) EUB0001049a PRKG1. To be noted: at 1 µM.

Experiment [14] concerns the target Serine/threonine-protein kinase Chk2 (Homo sapiens) (UniProt O96017). Briefly: Selectivity interaction (Upstate Kinase Profiler service (Millipore)) EUB0000056c CHEK2. The conditions noted are these: at 1 µM.
Experiment [15] has as its target Rho-associated protein kinase 2 (Homo sapiens, UniProt O75116). The experiment can be described thus: Selectivity interaction (KinomeScan (DiscoverX)) EUB0000655a ROCK2. To be noted: at 10 µM.
For experiment [16], the target named is Serine/threonine-protein kinase B-raf (Homo sapiens) (UniProt P15056). The conditions noted are these: at 10 µM.
Experiment [17] deals with T2, Hormonally up-regulated neu tumor-associated kinase (Homo sapiens) (UniProt P57058).
T2 sequence (whole entry): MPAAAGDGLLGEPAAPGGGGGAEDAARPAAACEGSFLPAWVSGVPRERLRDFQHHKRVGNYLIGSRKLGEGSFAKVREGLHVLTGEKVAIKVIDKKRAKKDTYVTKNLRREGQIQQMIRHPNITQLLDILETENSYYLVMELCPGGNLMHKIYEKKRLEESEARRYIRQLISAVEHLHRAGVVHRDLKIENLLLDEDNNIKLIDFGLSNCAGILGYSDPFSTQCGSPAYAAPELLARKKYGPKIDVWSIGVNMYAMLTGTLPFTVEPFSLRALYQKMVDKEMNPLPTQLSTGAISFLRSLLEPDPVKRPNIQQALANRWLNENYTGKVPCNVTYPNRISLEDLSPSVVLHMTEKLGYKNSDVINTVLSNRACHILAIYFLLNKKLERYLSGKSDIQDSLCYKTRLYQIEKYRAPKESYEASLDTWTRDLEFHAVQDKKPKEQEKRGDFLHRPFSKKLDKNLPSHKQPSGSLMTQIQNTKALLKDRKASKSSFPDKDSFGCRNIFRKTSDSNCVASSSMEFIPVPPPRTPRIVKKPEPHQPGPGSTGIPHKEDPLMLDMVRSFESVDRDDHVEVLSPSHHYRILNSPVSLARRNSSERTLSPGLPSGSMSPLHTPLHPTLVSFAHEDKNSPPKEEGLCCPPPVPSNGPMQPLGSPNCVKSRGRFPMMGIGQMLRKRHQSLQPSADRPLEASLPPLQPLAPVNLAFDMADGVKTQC
The experiment can be described thus: Selectivity interaction (KinomeScan (DiscoverX)) EUB0000655a HUNK. The conditions noted are these: at 10 µM.

The target in experiment [18] is Activin receptor type-2A (Homo sapiens) (UniProt P27037). The experiment can be described thus: Selectivity interaction (KinomeScan (DiscoverX)) EUB0001079a ACVR2A. The conditions noted are these: at 1 µM.
In experiment [19] the target is Phosphatidylinositol 4,5-bisphosphate 3-kinase catalytic subunit gamma isoform (Homo sapiens) (UniProt P48736). Briefly: Selectivity interaction (KinomeScan (DiscoverX)) EUB0000229b PIK3CG. To be noted: at 10 µM.
Sequence of Phosphatidylinositol 4,5-bisphosphate 3-kinase catalytic subunit gamma isoform (Homo sapiens) (P48736 whole entry, looked up, canonical isoform): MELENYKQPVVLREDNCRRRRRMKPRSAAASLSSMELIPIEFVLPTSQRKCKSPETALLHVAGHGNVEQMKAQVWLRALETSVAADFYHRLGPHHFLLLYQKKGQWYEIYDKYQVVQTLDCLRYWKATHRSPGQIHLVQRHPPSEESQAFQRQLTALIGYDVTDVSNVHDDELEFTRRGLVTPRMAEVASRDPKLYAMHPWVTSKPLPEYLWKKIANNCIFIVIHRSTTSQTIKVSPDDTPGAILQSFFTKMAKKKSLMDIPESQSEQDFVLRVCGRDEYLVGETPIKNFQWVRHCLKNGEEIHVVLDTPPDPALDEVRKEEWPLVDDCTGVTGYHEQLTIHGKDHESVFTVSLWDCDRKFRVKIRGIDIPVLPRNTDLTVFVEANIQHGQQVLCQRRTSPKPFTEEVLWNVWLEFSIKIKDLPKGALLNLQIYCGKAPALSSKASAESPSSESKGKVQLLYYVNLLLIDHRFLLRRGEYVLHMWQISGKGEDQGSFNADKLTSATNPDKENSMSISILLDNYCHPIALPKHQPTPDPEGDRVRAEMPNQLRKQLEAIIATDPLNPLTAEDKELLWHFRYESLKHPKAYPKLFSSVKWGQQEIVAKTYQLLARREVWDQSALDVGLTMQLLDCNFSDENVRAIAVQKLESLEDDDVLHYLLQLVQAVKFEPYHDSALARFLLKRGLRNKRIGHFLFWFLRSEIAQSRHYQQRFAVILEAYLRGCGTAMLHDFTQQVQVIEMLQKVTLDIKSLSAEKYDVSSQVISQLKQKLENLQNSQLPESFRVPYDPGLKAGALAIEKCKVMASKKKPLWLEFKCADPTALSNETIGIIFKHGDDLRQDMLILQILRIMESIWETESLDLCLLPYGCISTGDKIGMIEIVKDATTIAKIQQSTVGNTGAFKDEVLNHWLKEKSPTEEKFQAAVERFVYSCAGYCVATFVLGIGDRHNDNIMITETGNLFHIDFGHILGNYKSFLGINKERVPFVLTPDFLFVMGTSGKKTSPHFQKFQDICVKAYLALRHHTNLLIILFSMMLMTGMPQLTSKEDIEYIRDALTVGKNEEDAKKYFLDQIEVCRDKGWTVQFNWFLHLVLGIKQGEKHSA

Sequence of Ribosomal protein S6 kinase alpha-5 (Homo sapiens) (O75582 whole entry, looked up): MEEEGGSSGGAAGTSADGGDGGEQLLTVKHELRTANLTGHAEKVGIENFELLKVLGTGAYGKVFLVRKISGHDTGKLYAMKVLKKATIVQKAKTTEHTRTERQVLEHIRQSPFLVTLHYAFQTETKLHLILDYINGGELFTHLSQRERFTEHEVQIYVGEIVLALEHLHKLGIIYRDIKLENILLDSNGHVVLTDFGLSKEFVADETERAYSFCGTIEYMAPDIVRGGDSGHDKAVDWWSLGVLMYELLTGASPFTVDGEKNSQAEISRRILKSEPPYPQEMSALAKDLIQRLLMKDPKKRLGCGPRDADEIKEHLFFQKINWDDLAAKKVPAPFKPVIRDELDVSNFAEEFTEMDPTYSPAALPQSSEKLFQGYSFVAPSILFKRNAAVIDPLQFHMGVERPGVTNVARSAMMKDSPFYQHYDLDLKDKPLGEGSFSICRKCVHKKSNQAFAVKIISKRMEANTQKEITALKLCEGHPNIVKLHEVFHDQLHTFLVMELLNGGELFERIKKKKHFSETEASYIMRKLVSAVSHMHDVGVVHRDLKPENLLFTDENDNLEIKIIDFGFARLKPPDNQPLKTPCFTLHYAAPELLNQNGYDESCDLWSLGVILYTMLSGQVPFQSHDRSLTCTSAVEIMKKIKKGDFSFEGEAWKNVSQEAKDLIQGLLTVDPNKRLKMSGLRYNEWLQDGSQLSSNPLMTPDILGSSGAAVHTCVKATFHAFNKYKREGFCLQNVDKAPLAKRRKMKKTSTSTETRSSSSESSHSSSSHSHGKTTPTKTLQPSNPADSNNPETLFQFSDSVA
Sequence of Protein kinase C theta type (Q04759 whole entry, looked up): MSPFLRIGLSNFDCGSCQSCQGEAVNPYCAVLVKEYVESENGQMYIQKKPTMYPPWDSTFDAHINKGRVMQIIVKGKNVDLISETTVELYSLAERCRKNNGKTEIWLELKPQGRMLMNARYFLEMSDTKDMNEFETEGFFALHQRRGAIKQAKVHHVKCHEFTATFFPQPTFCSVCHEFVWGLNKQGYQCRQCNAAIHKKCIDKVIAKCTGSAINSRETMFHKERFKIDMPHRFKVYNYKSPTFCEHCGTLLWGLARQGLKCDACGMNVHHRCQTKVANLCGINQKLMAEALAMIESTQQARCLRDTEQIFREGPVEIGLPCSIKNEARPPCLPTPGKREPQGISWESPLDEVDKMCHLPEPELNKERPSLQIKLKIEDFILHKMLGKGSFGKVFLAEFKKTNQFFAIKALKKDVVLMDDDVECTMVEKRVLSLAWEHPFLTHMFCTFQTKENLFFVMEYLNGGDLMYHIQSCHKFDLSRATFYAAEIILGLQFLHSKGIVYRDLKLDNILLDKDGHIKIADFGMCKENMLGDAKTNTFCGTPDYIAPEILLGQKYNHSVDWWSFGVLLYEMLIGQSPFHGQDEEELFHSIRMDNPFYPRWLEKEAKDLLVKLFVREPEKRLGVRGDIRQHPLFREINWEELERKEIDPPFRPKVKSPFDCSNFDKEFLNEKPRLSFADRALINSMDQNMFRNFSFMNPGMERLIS
Sequence of Mitogen-activated protein kinase kinase kinase kinase 5 (Homo sapiens) (Q9Y4K4 whole entry, looked up): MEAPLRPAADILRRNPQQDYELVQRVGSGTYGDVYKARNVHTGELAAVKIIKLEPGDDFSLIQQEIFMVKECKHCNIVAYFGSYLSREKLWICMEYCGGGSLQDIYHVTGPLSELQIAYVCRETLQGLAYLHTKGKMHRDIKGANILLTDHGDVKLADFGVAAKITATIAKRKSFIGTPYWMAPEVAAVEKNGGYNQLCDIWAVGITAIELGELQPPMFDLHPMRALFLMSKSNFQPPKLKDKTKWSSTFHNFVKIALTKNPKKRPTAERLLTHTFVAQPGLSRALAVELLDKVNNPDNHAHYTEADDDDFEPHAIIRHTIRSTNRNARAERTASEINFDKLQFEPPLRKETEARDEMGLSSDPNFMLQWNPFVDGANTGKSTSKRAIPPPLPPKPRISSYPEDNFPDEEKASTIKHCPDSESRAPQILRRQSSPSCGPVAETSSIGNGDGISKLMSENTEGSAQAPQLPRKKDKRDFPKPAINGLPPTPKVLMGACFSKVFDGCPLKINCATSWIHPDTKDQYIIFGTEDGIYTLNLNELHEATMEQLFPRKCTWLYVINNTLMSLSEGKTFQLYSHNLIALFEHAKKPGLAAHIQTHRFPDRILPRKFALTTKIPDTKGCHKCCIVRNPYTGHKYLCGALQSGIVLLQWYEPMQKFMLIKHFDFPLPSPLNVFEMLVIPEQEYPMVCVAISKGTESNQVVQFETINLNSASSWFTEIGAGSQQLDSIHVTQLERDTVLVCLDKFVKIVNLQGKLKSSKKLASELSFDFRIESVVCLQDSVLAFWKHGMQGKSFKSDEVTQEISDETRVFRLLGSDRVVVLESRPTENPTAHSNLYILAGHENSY
Sequence of Serine/threonine-protein kinase B-raf (Homo sapiens) (P15056 whole entry): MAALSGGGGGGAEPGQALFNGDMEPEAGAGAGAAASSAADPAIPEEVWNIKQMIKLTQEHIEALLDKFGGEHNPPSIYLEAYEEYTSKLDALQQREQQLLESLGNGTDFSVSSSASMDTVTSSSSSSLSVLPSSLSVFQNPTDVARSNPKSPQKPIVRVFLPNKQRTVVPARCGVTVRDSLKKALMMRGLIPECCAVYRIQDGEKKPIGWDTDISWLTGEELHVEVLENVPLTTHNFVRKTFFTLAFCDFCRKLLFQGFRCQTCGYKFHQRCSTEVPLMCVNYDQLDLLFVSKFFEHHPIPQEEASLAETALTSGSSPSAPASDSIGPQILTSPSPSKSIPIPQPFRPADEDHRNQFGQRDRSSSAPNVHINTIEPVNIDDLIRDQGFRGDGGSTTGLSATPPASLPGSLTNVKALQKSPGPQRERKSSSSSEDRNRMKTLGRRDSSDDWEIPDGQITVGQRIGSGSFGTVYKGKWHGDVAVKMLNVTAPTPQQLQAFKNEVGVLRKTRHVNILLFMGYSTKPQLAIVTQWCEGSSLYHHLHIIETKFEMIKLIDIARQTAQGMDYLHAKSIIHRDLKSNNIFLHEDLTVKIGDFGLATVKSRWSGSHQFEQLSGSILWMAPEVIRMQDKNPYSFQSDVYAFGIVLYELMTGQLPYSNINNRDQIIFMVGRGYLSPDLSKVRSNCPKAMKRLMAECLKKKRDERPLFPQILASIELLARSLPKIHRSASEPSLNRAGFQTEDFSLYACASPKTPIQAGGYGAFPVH
Sequence of MAP kinase-activated protein kinase 2 (P49137 whole entry, looked up): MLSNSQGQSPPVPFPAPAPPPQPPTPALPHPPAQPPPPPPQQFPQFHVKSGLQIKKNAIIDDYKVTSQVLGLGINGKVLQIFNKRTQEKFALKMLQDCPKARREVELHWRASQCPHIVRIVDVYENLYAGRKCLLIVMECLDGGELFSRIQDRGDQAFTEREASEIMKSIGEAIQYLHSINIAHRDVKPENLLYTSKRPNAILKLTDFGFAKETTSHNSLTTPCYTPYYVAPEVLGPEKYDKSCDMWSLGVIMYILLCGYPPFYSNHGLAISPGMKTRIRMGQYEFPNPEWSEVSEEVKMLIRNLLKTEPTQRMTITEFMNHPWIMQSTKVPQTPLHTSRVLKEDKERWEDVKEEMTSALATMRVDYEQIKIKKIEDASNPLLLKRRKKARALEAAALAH
Sequence of Dual specificity mitogen-activated protein kinase kinase 1 (Q02750 whole entry): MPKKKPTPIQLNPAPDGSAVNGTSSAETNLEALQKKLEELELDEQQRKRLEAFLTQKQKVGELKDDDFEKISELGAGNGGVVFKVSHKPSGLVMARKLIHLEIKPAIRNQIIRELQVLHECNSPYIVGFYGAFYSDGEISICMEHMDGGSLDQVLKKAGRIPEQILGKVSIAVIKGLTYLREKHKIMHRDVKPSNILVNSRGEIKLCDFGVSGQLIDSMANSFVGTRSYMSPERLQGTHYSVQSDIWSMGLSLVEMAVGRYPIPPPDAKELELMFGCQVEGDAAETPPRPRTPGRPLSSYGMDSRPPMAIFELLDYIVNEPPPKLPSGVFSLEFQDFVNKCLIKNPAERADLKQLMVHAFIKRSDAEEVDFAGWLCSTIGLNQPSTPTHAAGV

`Cn1cc(-n2cnc3c(NCc4nc5cc(Cl)c(Cl)cc5[nH]4)nc(N4CCOCC4)nc32)cn1` displayed a % of control in [1] of 1.16%.

`COCC(=O)NC/C=C/c1ccc2ncnc(Nc3ccc(Oc4ccc(C)nc4)c(C)c3)c2c1` [CP-724714] came in with a % of control in experiment [2] of 68%. For the molecule `O=C(NOC[C@H](O)CO)c1ccc(F)c(F)c1Nc1ccc(I)cc1F`, the % of control in experiment [3] was 50%. On to `CNC(=O)Nc1ccc(-c2nc(N3CC4CCC(C3)O4)c3cnn(C4CCC5(CC4)OCCO5)c3n2)cc1`, for which the % of control in experiment [4] came out at 82%. As to `Cc1cc([C@@H](C)Nc2ccccc2C(=O)O)c2nc(N3CCOCC3)cc(=O)n2c1` [AZD-6482], the % of control in experiment [5] is 81%; in experiment [6], 100%.

Consider `CC[C@@H]1[C@H](F)C(=O)N[C@@H]1COc1nccc2cc(C(N)=O)c(OC)cc12` [ZIMLOVISERTIB], for which the % of inhibition in experiment [7] was 0.449%; in experiment [8], -3.5%; in experiment [9] (at 0.01 µM), 3.8%; in experiment [9] (at 0.04 µM), -1.3%; in experiment [9] (at 0.2 µM), 2.2%; in experiment [9] (at 1 µM), -9.4%. The % of inhibition was found to be 1.5% in [9] (at 5 µM) and 20.4% in experiment [10].

With `C=CC(=O)Nc1cc(-n2c(=O)ccc3cnc4ccc(-c5ccc(NS(C)(=O)=O)cc5)cc4c32)ccc1C`, the % of control in [11] (at 1 µM) stood at 100%; in experiment [11] (at 10 µM), 74%. Consider `C=CC(=O)Nc1cccc(C(=O)Nc2ccc(Nc3cc(-c4[nH]c(SC)nc4C)ccn3)cc2)c1`, for which the results for the % of control in experiment [12] (at 1 µM) and in experiment [12] (at 5 µM) were 97% and 96%, respectively. Molecule `COc1cc(Nc2nc(C)cc(-c3cnn4nc(OC)ccc34)n2)cc(C(F)(F)F)c1` had a % of control in experiment [13] of 92%. With `Cc1ccc(-c2ccc3c(ccc4sc5c(c43)NC[C@@H](C)NC5=O)n2)cn1`, the % of inhibition in [14] is 44%. On to `CN(C)CCOc1ccc(-c2nc(-c3ccncc3)c(-c3ccc4c(c3)CC/C4=N\O)[nH]2)cc1`, for which the values for the % of control in [15], in experiment [16] and in [17] were 47%, 0% and 84%, respectively. As to `Nc1cnc(N2CCc3cc(S(=O)(=O)Nc4c(F)cc(Cl)cc4F)cc(N4CCCC4=O)c32)nc1` [TP-020n], the % of control in [18] came out at 67%.

Molecule `COc1cc(N(C)c2ccnc3ccc(C(F)(F)F)cc23)cc(OC)c1OC` registered a % binding in experiment [19] of 99%.

These data come from ChEMBL document CHEMBL5465560, “Selectivity Literature for EUbOPEN Chemogenomic Library” (2024).
